# Measured values taken from PMC9682871 (Antiviral Research, 2022).
# Columns and labels:
# [1] = system: SARS-CoV-2; format: cell-based
# [2] = system: pseudovirus presenting the spike of MERS-CoV; experiment: organism not typed; format: cell-based
# [3] = system: HCoV-229E; format: cell-based
# [4] = system: MERS-CoV; format: cell-based
# [5] = system: A549 cells; format: cell-based; details: 10 μM, 12 h
# [6] = system: SARS-CoV; format: cell-based
# [7] = system: A549 cells; format: cell-based; details: 10 μM, 12 h; remark: listed apart in the source
# [8] = system: HCoV-OC43; format: cell-based
# [9] = system: SARS-CoV-2; details: hamster, in vivo
# [10] = system: Huh-7 cells
# [11] = system: MERS-CoV; format: cell-based; remark: listed apart in the source
Compound,inhibition of SARS-CoV-2 infection by viral RNA [1],"EC50 ([2]; Huh-7, read-out: Pseudovirus (EC50, μM)) [µM]",efficacy against HCoV-229E [3],inhibition by time of addition [4],total cellular cholesterol [5],potency against SARS-CoV [6],CH25H gene expression [7],SQLE expression [7],efficacy against HCoV-OC43 [8],activity level or survival rate [9],cytotoxic effects in the pseudovirus assay [10],"MERS-CoV infection assay, immunofluorescence [11]",pseudovirus infection / luciferase signal [2]
O=C(c1ccc(OCCN2CCCCC2)cc1)c1c(-c2ccc(O)cc2)sc2cc(O)ccc12 [raloxifene],strong potency,0.2,effective,more potent when added at the earlier stages,marginal elevation,strong potency,do not show alteration,significantly enhanced,effective,no significant changes,no significant cytotoxic effects,–,–
Cc1cccc(C)c1OCC(=O)N[C@@H](Cc1ccccc1)[C@@H](O)C[C@H](Cc1ccccc1)NC(=O)[C@H](C(C)C)N1CCCNC1=O [lopinavir],–,–,–,showed efficacy when added at a relatively later stage of infection,–,–,–,–,–,–,–,quenched in a concentration-dependent manner,–
CCCCc1oc2ccccc2c1C(=O)c1cc(I)c(OCCN(CC)CC)c(I)c1 [amiodarone],–,–,showed efficacy,strongly inhibited the viral infection when added at an early time point,–,strong potency,–,–,showed efficacy,–,–,–,outstanding antiviral activity
CCN(CC)CCCC(C)Nc1ccnc2cc(Cl)ccc12 (centres unmarked) [chloroquine],–,–,–,stage-selective activity,–,–,–,–,–,–,–,quenched in a concentration-dependent manner,–
